According to PubChem BioAssay AID2060500 (Molecular Pharmacology Branch, DTP, NCI, 2025):

System: 596521-263-R-J1-PDC complex spheroids, viability % of control
Assay: Anticancer human tumor 596521-263-R-J1-PDC patient-derived soft tissue sarcoma cell line growth inhibition [GQUAD]
Details: for IC50: curve of first compound; for viability, T/C: stronger effect = lower value
In short: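 Multi-cell-type spheroids of tumor cells with HUVEC and mesenchymal stem cells, treated with drug combinations. Concentrations descend in half-log steps from near clinical Cmax, or from 10 microM where Cmax is unknown; viability read-out.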

[1] = second compound 0.0316 µM, first compound 0.0316 µM
[2] = second compound 0.0316 µM, first compound 0.1 µM
[3] = second compound 0.0316 µM, first compound 0.316 µM
[4] = second compound 0.0316 µM, first compound 1 µM
[5] = second compound 0.0316 µM, first compound 3.16 µM
[6] = second compound 0.0316 µM, first compound 10 µM
[7] = second compound 0.1 µM, first compound 0.0316 µM
[8] = second compound 0.1 µM, first compound 0.1 µM
[9] = second compound 0.1 µM, first compound 0.316 µM
[10] = second compound 0.1 µM, first compound 1 µM
[11] = second compound 0.1 µM, first compound 3.16 µM
[12] = second compound 0.1 µM, first compound 10 µM
[13] = second compound 0.316 µM, first compound 0.0316 µM
[14] = second compound 0.316 µM, first compound 0.1 µM
[15] = second compound 0.316 µM, first compound 0.316 µM
[16] = second compound 0.316 µM, first compound 1 µM
[17] = second compound 0.316 µM, first compound 3.16 µM
[18] = second compound 0.316 µM, first compound 10 µM
[19] = second compound 1 µM, first compound 0.0316 µM
[20] = second compound 1 µM, first compound 0.1 µM
[21] = second compound 1 µM, first compound 0.316 µM
[22] = second compound 1 µM, first compound 1 µM
[23] = second compound 1 µM, first compound 3.16 µM
[24] = second compound 1 µM, first compound 10 µM
[25] = second compound 3.16 µM, first compound 0.0316 µM
[26] = second compound 3.16 µM, first compound 0.1 µM
[27] = second compound 3.16 µM, first compound 0.316 µM
[28] = second compound 3.16 µM, first compound 1 µM
[29] = second compound 3.16 µM, first compound 3.16 µM
[30] = second compound 3.16 µM, first compound 10 µM
[31] = second compound 10 µM, first compound 0.0316 µM
[32] = second compound 10 µM, first compound 0.1 µM
[33] = second compound 10 µM, first compound 0.316 µM
[34] = second compound 10 µM, first compound 1 µM
[35] = second compound 10 µM, first compound 3.16 µM
[36] = second compound 10 µM, first compound 10 µM
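Note: spheroids exposed to drugs for 7 days before viability reading.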
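Throughout, for viability, T/C: 100% = DMSO vehicle control viability.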

With `C#Cc1c(F)ccc2cc(O)cc(-c3ncc4c(N5CC6CCC(C5)N6)nc(OCC56CCCN5CC(F)C6)nc4c3F)c12` (stereo unspecified) + Cc1cnc(CNC(=O)c2c(=O)c3ccc(N4CCCN(C)CC4)nc3n3c2sc2ccccc23)cn1 the IC50 (second compound 0.0316 µM) was > 10000 nM, the IC50 (second compound 0.1 µM) was > 10000 nM and the IC50 (second compound 0.316 µM) was > 10000 nM. For the same compound, the IC50 (second compound 1 µM) was > 10000 nM, the IC50 (second compound 3.16 µM) was > 10000 nM and the IC50 (second compound 10 µM) was < 31.6 nM. The viability, T/C [1] was 93.2%, the viability, T/C [2] was 94.4% and the viability, T/C [3] was 101%. For the same compound, the viability, T/C [4] was 88%, the viability, T/C [5] was 98.5% and the viability, T/C [6] was 90.7%. The viability, T/C [7] was 92.9%, the viability, T/C [8] was 74.9% and the viability, T/C [9] was 76.7%. The viability, T/C [10] was 93.5%, the viability, T/C [11] was 90.8% and the viability, T/C [12] was 82.9%. It also gave a viability, T/C [13] of 72.5%, a viability, T/C [14] of 74.6% and a viability, T/C [15] of 70.4%. For the same compound, the viability, T/C [16] was 93.3%, the viability, T/C [17] was 91.8% and the viability, T/C [18] was 66.7%. It also gave a viability, T/C [19] of 60.7%, a viability, T/C [20] of 60.8% and a viability, T/C [21] of 61.4%. For the same compound, the viability, T/C [22] was 66.3%, the viability, T/C [23] was 67.4% and the viability, T/C [24] was 52.5%. For the same compound, the viability, T/C [25] was 56.4%, the viability, T/C [26] was 49.2% and the viability, T/C [27] was 49.8%. For the same compound, the viability, T/C [28] was 57%, the viability, T/C [29] was 50.9% and the viability, T/C [30] was 54%. The viability, T/C [31] was 36.3%, the viability, T/C [32] was 14.9% and the viability, T/C [33] was 39.6%. For the same compound, the viability, T/C [34] was 40.7%, the viability, T/C [35] was 36.9% and the viability, T/C [36] was 0.57%.

In the case of `COc1cc(C2c3cc4c(cc3C(OC3OC5COC(C)OC5C(O)C3O)C3COC(=O)C23)OCO4)cc(OC)c1O` (stereo unspecified) + Cc1[nH]c2ccc(F)cc2c1-c1nc2c3cccnc3c3ncccc3c2[nH]1, the IC50 (second compound 0.0316 µM) is reported as 5370 nM, the IC50 (second compound 0.1 µM) is reported as > 10000 nM and the IC50 (second compound 0.316 µM) is reported as > 10000 nM. The IC50 (second compound 1 µM) was 5420 nM, the IC50 (second compound 3.16 µM) was 8310 nM and the IC50 (second compound 10 µM) was 970 nM. It also gave a viability, T/C [1] of 107%, a viability, T/C [2] of 78.9% and a viability, T/C [3] of 78.4%. It also gave a viability, T/C [4] of 66.8%, a viability, T/C [5] of 51.6% and a viability, T/C [6] of 45.8%. It also gave a viability, T/C [7] of 93%, a viability, T/C [8] of 86.8% and a viability, T/C [9] of 79.3%. The viability, T/C [10] was 66.3%, the viability, T/C [11] was 58.3% and the viability, T/C [12] was 53.3%. The viability, T/C [13] was 93.4%, the viability, T/C [14] was 104% and the viability, T/C [15] was 87.3%. It also gave a viability, T/C [16] of 54.1%, a viability, T/C [17] of 57.9% and a viability, T/C [18] of 50.3%. The viability, T/C [19] was 102%, the viability, T/C [20] was 85.2% and the viability, T/C [21] was 79.5%. For the same compound, the viability, T/C [22] was 60.9%, the viability, T/C [23] was 55.7% and the viability, T/C [24] was 44.8%. For the same compound, the viability, T/C [25] was 92.8%, the viability, T/C [26] was 82% and the viability, T/C [27] was 79.3%. It also gave a viability, T/C [28] of 60.3%, a viability, T/C [29] of 63.6% and a viability, T/C [30] of 46.4%. For the same compound, the viability, T/C [31] was 67.4%, the viability, T/C [32] was 64.3% and the viability, T/C [33] was 65%. For the same compound, the viability, T/C [34] was 49.2%, the viability, T/C [35] was 43.9% and the viability, T/C [36] was 39.5%.

`COc1cccc2c1C(=O)c1c(O)c3c(c(O)c1C2=O)CC(O)(C(=O)CO)CC3OC1CC(N)C(O)C(C)O1` (stereo unspecified) + Cc1cnc(CNC(=O)c2c(=O)c3ccc(N4CCCN(C)CC4)nc3n3c2sc2ccccc23)cn1 gave an IC50 (second compound 0.0316 µM) of 750 nM, an IC50 (second compound 0.1 µM) of 784 nM and an IC50 (second compound 0.316 µM) of 795 nM. The IC50 (second compound 1 µM) was 511 nM, the IC50 (second compound 3.16 µM) was 338 nM and the IC50 (second compound 10 µM) was < 31.6 nM. The viability, T/C [1] was 98.3%, the viability, T/C [2] was 71.2% and the viability, T/C [3] was 66.6%. It also gave a viability, T/C [4] of 52.3%, a viability, T/C [5] of 26.5% and a viability, T/C [6] of 4.29%. For the same compound, the viability, T/C [7] was 87.2%, the viability, T/C [8] was 73.8% and the viability, T/C [9] was 57.1%. It also gave a viability, T/C [10] of 51.1%, a viability, T/C [11] of 31% and a viability, T/C [12] of 4.25%. The viability, T/C [13] was 78.7%, the viability, T/C [14] was 70.4% and the viability, T/C [15] was 55.5%. It also gave a viability, T/C [16] of 51.4%, a viability, T/C [17] of 29% and a viability, T/C [18] of 3.29%. The viability, T/C [19] was 69.6%, the viability, T/C [20] was 53% and the viability, T/C [21] was 50.7%. It also gave a viability, T/C [22] of 47.2%, a viability, T/C [23] of 30.7% and a viability, T/C [24] of 2.51%. It also gave a viability, T/C [25] of 50.7%, a viability, T/C [26] of 49% and a viability, T/C [27] of 52.7%. For the same compound, the viability, T/C [28] was 45.2%, the viability, T/C [29] was 23.8% and the viability, T/C [30] was 0.29%. For the same compound, the viability, T/C [31] was 46.8%, the viability, T/C [32] was 49.5% and the viability, T/C [33] was 46.4%. It also gave a viability, T/C [34] of 44.3%, a viability, T/C [35] of 11.4% and a viability, T/C [36] of 0.27%.
